Changes are numbered by the printed parent chain.
What was measured:
Assay in all cases: solution-based ALEX single-molecule FRET titration
[1] = molecular target: T1, OpuAC (substrate-binding domain of OpuA) (Lactococcus lactis, UniProt Q7DAU8, K521C/T504C)
T1 construct: gene busAB
T1 sequence (Q7DAU8 320-573 T504C/K521C): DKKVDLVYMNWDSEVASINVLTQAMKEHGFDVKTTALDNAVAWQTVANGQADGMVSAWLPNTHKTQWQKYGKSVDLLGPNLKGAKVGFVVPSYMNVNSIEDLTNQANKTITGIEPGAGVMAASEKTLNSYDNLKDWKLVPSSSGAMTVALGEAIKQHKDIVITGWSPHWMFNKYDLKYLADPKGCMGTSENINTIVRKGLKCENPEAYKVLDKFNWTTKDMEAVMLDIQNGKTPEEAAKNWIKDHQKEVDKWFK

[2] = molecular target: T2, OpuAC (substrate-binding domain of OpuA) (Lactococcus lactis, UniProt Q7DAU8, D320C/K453C)
T2 construct: gene busAB
T2 sequence (Q7DAU8 320-573 D320C/K453C): T1 sequence (Q7DAU8 320-573 T504C/K521C) with D1C, K134C, C185T, C202K

[3] = molecular target: T3, OpuAC (substrate-binding domain of OpuA) (Lactococcus lactis, UniProt Q7DAU8, K566C/N414C)
T3 construct: gene busAB
T3 sequence (Q7DAU8 320-573 N414C/K566C): T1 sequence (Q7DAU8 320-573 T504C/K521C) with N95C, C185T, C202K, K247C

C[N+](C)(C)CC(=O)[O-] [glycine betaine]
Kd [1]: 38 µM
Kd [2]: 1 to 4 µM
Kd [3]: 1 to 4 µM
